# Measured values: US12351606B2, “Compositions and related methods for modulating transcriptional activation by incorporating gag motifs upstream of core promoter elements” (UNIVERSITY OF VIRGINIA PATENT FOUNDATION, priority 2007, dated 2025)
# B1: GAG motif: SEQ ID NO:1 regulatory region of NtPMT1a promoter: G-box like, AT-rich and GCC-like box elements; tested as tetramer before CaMV 35S -46::GUS (nucleic acid, listed as Nicotiana tabacum)
# DNA: CTAACCCTGCACGTTGTAATGAATTTTTAACTATTATATTATATCGAGTTGCGCCCTCCACTCCTCGGTGTCCA
# modifications: expressed or natural sequence
# notes: tested as tetramer before CaMV 35S -46::GUS
# Key:
# BY-2 cells = assay: GUS reporter activity of tetramer promoter constructs in transformed BY-2 cells with or without MeJA; type: cell-based, N. tabacum; details: tetramer upstream of minimal CaMV 35S -46 promoter
# Protocol: Promoter constructs were produced by annealing phosphorylated upper- and lower-strand oligonucleotides to create various elements containing a SpeI restriction site at the 5′ end and an XbaI restriction site at the 3′ end. These were introduced into MS23-β-glucuronidase (“GUS”) between the SpeI and XbaI sites.
# Ten colonies of transformed Agrobacteria (A. tumefaciens) containing the promoter construct were picked from a fresh plate and inoculated into 10 ml YEB, containing 50 mg/l rifampicin and 50 mg/l kanamycin, in a 50 ml flask. Cell cultures were incubated overnight at 28° C. with shaking, an overnight culture (1 ml) was taken. Cultures were diluted with YEB plus antibiotics so that the OD600 was approximately 0.3. Agrobacteria were grown at 28° C. with shaking until the OD600 was about 0.6. Cells were pelleted by centrifugation. Supernatants were removed and agrobacteria were resuspended in 0.5 ml MS. Approximately 3 ml of wild type BY-2 cells were introduced into Petri dishes. Approximately 100 μl of undiluted Agrobacteria or 1:10 or 1:100 diluted agrobacteria were mixed with the BY-2 cells to infect them. After 2 days, the BY-2 cells were washed with 30 ml MS medium and left for 30 min before the supernatant was removed. Approximately 2 ml aliquots of the transformed BY-2 cells were deposited onto MS plates containing vitamins, 50 mg/l kanamycin, and 500 mg/l cefotaxin. Transformed calli were visible after 3-5 weeks.
# Single transformed calli were picked from selection plates and put on fresh MS+agar plates containing vitamins, 50 mg/l kanamycin, and 500 mg/l cefotaxin. Additionally, small amounts of calli were deposited into micro-wells (Corning 6 well culture cluster) with 6 ml MS medium containing vitamins, kanamycin, and cefotaxin. Samples in the micro-wells were grown at 28° C. for 4 days with shaking. Approximately 1 ml cells from the micro-wells were subcultured to new micro-wells with 5 ml fresh MS medium with vitamins, 50 mg/l kanamycin, and 500 mg/l cefotaxin. BY-2 cells were grown at 28° C. for 3 days with shaking. Then ten independent lines were chosen and 0.4 ml cells from each of the liquid cultures were subcultured to a 250 ml Erlenmeyer flask with 45 ml MS medium, vitamins, 50 mg/l kanamycin, and 500 mg/l cefotaxin. Cells were grown at 28° C. for 2 days with shaking. Then 10 ml cells from each flask were introduced into new 250 ml Erlenmeyer flasks with 40 ml MS medium containing vitamins without hormones (−2.4D) and antibiotics. The BY-2 cells were grown at 28° C. for 1 day with shaking. After 1 day BY-2 cells were treated with different amounts of methyl jasmonate (MeJA).
# (§1) Histochemical staining for GUS activity and GUS activity determination was performed as described by Jefferson (1987).
# An improved method for the analysis of promoter activity in BY-2 cells was developed. Transformed BY-2 calli were grown on selection plates and subsequently grown as liquid cultures in MS medium. For each individual construct ten independent lines were chosen. Approximately 0.5 ml cells from each of the liquid cultures were subcultured together in MS medium that contain vitamins, kanamycin, and cefotaxin. After 2 days, the cells were diluted in fresh MS medium containing vitamins without hormones (−2.4D) to reduce any stress response induced by cell density, and to deplete the medium of auxin. It has been shown previously that high auxin levels in the medium decreased the extent of MeJA-induced NtPMT:GUS expression (Xu and Timko, 2004). After 1 day BY-2 cells were treated with 100 μM MeJA. After 48 hours cell samples were taken, and were used to determine the GUS activity. For statistical analysis, each experiment was repeated four times and to avoid day to day variation in the GUS activities, and the data were normalized. These cell culture conditions ensured both a rapid and uniform response to MeJA.
# tobacco plants = assay: Histochemical GUS staining of transgenic tobacco plants after wounding or MeJA; type: in vivo, N. tabacum; details: tetramer constructs, GUS staining after 72 hours
# Protocol: as §1
# Ten colonies of the transformed Agrobacteria containing a promoter construct of interest were picked from a fresh plate and inoculated into 10 ml YEB, containing 50 mg/l rifampicin, and 50 mg/l kanamycin, in a 50 ml flask. Cell cultures were incubated overnight at 28° C. with shaking. Approximately 1 ml of overnight culture was taken. Cultures were diluted with 50 ml YEB plus antibiotics so that the OD600 was approximately 0.3. Agrobacteria were grown at 28° C. with shaking until the OD600 was approximately 0.6. The cells were then pelleted by centrifugation. Supernatants were removed and Agrobacteria were resuspended in 40 ml fresh YEB by pipetting with a 1 ml tip. Wild type tobacco leaves were cut into small pieces under sterile conditions and put in a 50 ml beaker. Agrobacteria solution was poured onto the tobacco leaves and the mixture was swirled together and left for 5 min for the Agrobacteria to infect the leaves. Infected leaves were put on MS plates with filter paper (to limit Agrobacteria grow). […] Plates were left for 2 days in the dark. After 2 days the tobacco pieces were transferred onto MS plates containing 1 mg/l 6 BA, 500 mg/l cefotaxin and 100 mg/l kanamycin. Samples were left in the light at 28° C. […]
Molecule,promoter activity / promoter strength (BY-2 cells),"response of GUS expression to MeJA treatment (BY-2 cells; 100 μM MeJA, 48 hours)",MeJA-inducible expression in roots (tobacco plants; 25 μM MeJA),wound-inducible expression in roots (tobacco plants; wounding of roots or leaves),"MeJA inducibility of GUS expression (relative fold inducibility) (BY-2 cells; 100 μM MeJA, 48 hours)"
AT-rich element: SEQ ID NO:3; tetramer in front of minimal CaMV 35S -46 promoter (DNA TAATGAATTTTTAACTATTATATTATAT; expressed or natural sequence; listed as Nicotiana tabacum),only low level promoter activity,characteristic reduction in promoter activity after MeJA addition,–,–,–
G Box-like element: SEQ ID NO:2 (GCACGTTG); tetramer in front of minimal CaMV 35S -46 promoter (expressed or natural sequence; listed as Nicotiana tabacum),Low promoter activity,characteristic reduction after MeJA exposure,–,–,–
GCC-like box: SEQ ID NO:4; tetramer in front of minimal CaMV 35S -46 promoter (DNA TGCGCCCTCCACTCCTCGGTGTCCA; expressed or natural sequence; listed as Nicotiana tabacum),only low level promoter activity,characteristic reduction in every line tested after MeJA addition,–,–,–
B1,much stronger than the G Box-GCC element,–,showed inducibility by MeJA,can direct wound-inducible expression,approximately 35 fold
